Data reported in patent publication US12404332B2, “Methods for diagnosing and treating cancers” (Research Development Foundation, priority 2020, dated 2025).
“Also recorded” adds a separate entry of the source.

Legend:
[1] = system: PD-L1; test: Tumor cell PD-L1 depletion by drugs (flow cytometry, immunoblot); assay type: cell-based, human and mouse
Experimental: High throughput Screening: B16 PD-L1 RFP cells were treated with 2.5 and 10 μM compounds from the Prestwick and LOPAC Libraries for 48 hours using the Agilent Bravo liquid pipetting platform. Then, cells were washed with PBS, and fixed with 4% paraformaldehyde (Electron Microscopy Sciences, Hatsfield, PA, Cat 15714S) and labeled with 2 μg/ml DAPI, (Molecular Probes, Cat D1306) and 1 μg/ml Cell Mask-Blue (Invitrogen, Cat. H32720). Plates were then imaged using the Operetta High Content Imaging System, Perkin Elmer, Waltham (DAPI and Cell Mask Blue, Ex 360-400, Em 410-480), and the RFP channels (Ex 520-550, Em 560-630) channels. Agents effecting ≥2-fold PD-L1 reduction in the RFP reporter without loss of ≥20% cell viability were candidate PD-L1 depletion agents.
Flow cytometry: Mice were sacrificed by cervical dislocation after induction of deep isoflurane anesthesia. ID8agg tumors were collected and cells were stained as described (Derup et al., 2020) using LSR II hardware and analyzed by FACS Diva (BD Bioscience) or Flow Jo software (Flow Jo, LLC). Anti-mouse (clone 10F.9G2) and human (clone 29E.2A3) PD-L1 [both PE/Cy7, Cat #124314 (mouse) 329718 (human)] were matched with isotype control. Apoptosis assessment used Annexin V and propidium iodide (Thermo Scientific) per manufacturer instruction.
(§1) Western blotting and immunoprecipitation: To prepare whole cell lysates, cells were harvested and lysed in RIPA (radioimmunoprecipitation assay) buffer plus 1 mM phenylmethylsulphonyl fluoride and Halt protease/phosphatase inhibitor cocktail (Thermo Scientific) at 4° C. Protein concentrations were measured by BCA Protein Assay Kit (Thermo Scientific). Protein was run on precast 4-15% sodium dodecyl sulfate polyacrylamide gels (Bio-Rad), transferred to polyvinylidene fluoride membranes (GE Water and Process Technologies), and then blocked in 5% non-fat milk for 1 hour at room temperature. The membranes were then incubated with 1:1000 diluted primary antibodies against indicated proteins (Cell Signaling). Specific antibody binding was detected by chemiluminescence using Western Lightening Plus regent (Perkin Elmer). Cells for (co) immunoprecipitation experiments were seeded in 15-cm dishes and cultured as described, using 6 million cells per immunoprecipitation reaction. For protein ubiquitination, cells were lysed in denaturing buffer (50 mM Tris-HCl, 0.5 mM EDTA and 1% SDS) followed by heating at 95° C. for 10 minutes and then quenched with 9 volumes of quenching buffer (0.5% Triton X-100, 20 mM Tris-HCl (pH 8.0), 137 mM NaCl, 10% glycerol, 2 mM EDTA). Protease inhibitor cocktail (Roche) was added fresh to all buffers. Cell lysates were incubated on a rotator for 30 minutes at 4° C., and then centrifuged at 20,000 g for 15 minutes at 4° C. Supernatants were subsequently incubated with anti-PD-L1 antibody overnight and processed using Dynabeads Protein G for Immunoprecipitation (Thermo Fisher Scientific). The final eluate was processed and Western blotting was performed.

[2] = system: mTORC1; test: Western blots for mTORC1 pathway and LC3 autophagy; assay type: cell-based
Experimental: FIGS. 40A-C: CAMB suppresses mTORC1 signals and reduces TIC numbers. FIG. 40A, Western blots for proteins in the mTORC1 pathway. Cells were treated with chlorambucil as indicated concentration for 48 hours. FIG. 40B, Western blot for LC3I/II to assess autophagy in cell lysates treated±chlorambucil at indicated concentrations. FIG. 40C, Percent of ALDH^hi TIC by flow cytometry of ES2 cells cultured±chlorambucil. Percent CD44^+CD24^+ ID8agg TIC and CD44^+CD133^+CD24^+ B16 TIC detected by flow cytometry.
as §1

**Q.** Which “effect on cell viability” value ([1]; over 2-3 days, human and mouse tumor lines) does the source give for O=C(O)CCCc1ccc(N(CCCl)CCCl)cc1 [chlorambucil] here?
**A.** little effect on cell viability

**Q.** And the “expression of PD-L1 in cancer cells” value ([1]; summary statement)?
**A.** decreased expression of PD-L1

**Q.** And the autophagy [2]?
**A.** promote autophagy

**Q.** And the mTORC1 signals [2]?
**A.** suppress mTORC1 signals; also recorded: inhibits mTORC1 signaling

**Q.** What about the “LC3 lipidation (LC3 I and II)” value ([2]; Western blot) of the same compound?
**A.** increased LC3 lipidation

**Q.** What about the “phosphorylation of P70S6K and 4EBP1” value ([2]; Western blot) of the same compound?
**A.** reduced phosphorylation of P70S6K and 4EBP1 in a dose-dependent manner
